Columns and labels:
H1618 cells = test: MTT assay, H1618; type: cell-based; details: Homo sapiens, 48 h
Experimental: (§1) Cell density measurements were performed using a hemocytometer to count reproductive cells resistant to staining with trypan blue. Approximately 20,000 cells were plated into each well of 96-well flat-bottomed micro-titer plates. After 12 h or 24 h incubation at 37° C., medium containing either COH-SR4 (ranging 0-200 μM) or elesclomol (ranging 0-20 μM) were added to the cells. After 24 h, 48 h or 96 h incubation, 20 μL of 5 mg/mL MTT were introduced to each well and incubated for 2 h. The plates were centrifuged and medium was decanted. Cells were subsequently dissolved in 100 μl DMSO with gentle shaking for 2 h at room temperature, followed by measurement of OD570 (91).
(§2) The effect of COH-SR4 was first examined in a NCI panel of cancer cell lines, the results of which indicated good activity of COH-SR4 towards lung cancer (FIG. 78A). […] Values are presented as mean±SD from two separate determinations with eight replicates each (n=16) (FIG. 78B). […] Standard colony-forming assay was performed and the colonies were counted using Innotech Alpha Imager HP. […] TUNEL assay was performed using Promega fluorescence detection kit and examined using Zeiss LSM 510 META laser-scanning fluorescence microscope with filters 520 and 620 nm. […]

[1] = tested on: Glioma Cells PBT-017 and/or U251; test: Combination index COH-SR4 and 5-FU, cell line not stated; type: cell-based; details: COH-SR4 <0.5 μM + 5-FU <125 μM
Experimental: Effects of combination of COH-SR4 and a chemotherapy drug such as TMZ, SN38, CPT-11, and 5-FU were studied by combination index (CI) theorem and plot using the method described in Chou (“Experimental Design, and Computerized Simulation of Synergism and Antagonism in Drug Combination Studies,” Pharmacological Reviews, Vol. 58, No. 3), which is incorporated herein by reference in its entirety.
COH-SR4 and a chemotherapy drug (TMZ, SN38, CPT-11, or 5-FU) were dissolved in DMSO individually, and then diluted to the appropriate concentration in the same cell culture media before applying to cells of each cell line. After 4 days, the amount of ATP present in the cell lysates were assessed using Progema's CellGlo kit. The CI of each combination of COH-SR4 and the chemotherapy drug was calculated and plotted against the concentration of COH-SR4 for each concentration of the chemotherapy drug used.

H520 cells = test: MTT assay, H520; type: cell-based; details: Homo sapiens, NCI-H520, 48 h
Experimental: as §1, §2

B16 mouse melanoma tumor = test: Western-blot of signaling proteins in B16 tumor tissue lysates; type: in vivo; details: band density ratio
Experimental: Western-blot analyses of signaling proteins in tumor tissue lysates in control and COH-SR4 treated groups were shown in FIG. 58. Crude fraction (about 50 μg) and WB with various antibodies were used.

[2] = Blood chemistries in C57 B mice; type: in vivo, mouse; details: 4 mg/kg b.w. alternate day, 2 weeks
Experimental: To evaluate the potential toxicity of COH-SR4 on animals, C57 B mice were treated with 0.1 mg/mice (4 mg/kg b.w.) of COH-SR4 or with vehicle on alternate day for 2 weeks (n=6). After the treatment period, blood and plasma/serum were isolated and analyzed. […] The plasma alanine transaminase (ALT) and alkaline phosphatase (ALP) were moderately higher in COH-SR4-treated mice (p<0.05), while the levels of two other liver enzymes; aspartate transaminase (AST) and lactate dehydrogenase (LDH) were similar with control mice (Table 5).

[3] = tested on: B16-F0 mouse and A2058 human melanoma cells; test: Cell cycle FACS analysis, melanoma; type: cell-based; details: 18 h
Experimental: 2×10^5 cells were treated with COH-SR4 (0 μM, 5 μM or 10 μM) for 18 h at 37° C. After treatment, floating and adherent cells were collected, washed with PBS, and fixed with 70% ethanol. On the day of flow analysis, cell suspensions were centrifuged; counted and same numbers of cells were resuspended in 500 μL PBS in flow cytometry tubes. Cells were then incubated with 2.5 μL of RNase (stock 20 mg/mL) at 37° C. for 30 min after which they were treated with 10 μL of propidium iodide (stock 1 mg/mL) solution and then incubated at room temperature for 30 min in the dark. The stained cells were analyzed using the Beckman Coulter Cytomics FC500, Flow Cytometry Analyzer. Results were processed using CXP2.2 analysis software from Beckman Coulter.

Hs600T = test: MTT assay, Hs600T; type: cell-based; details: Homo sapiens
Experimental: as §1
Cells of highly aggressive mouse melanoma cell line B16-F0 or human melanoma cell line Hs600T were incubated with various doses of COH-SR4 (1, 2.5, 5, 10, 25, 50, or 100 μM). The cell viabilities after treatment of 48 hours and 96 hours were measured and summarized in FIGS. 54A and 55A, respectively. […] Data were presented as mean±Standard Deviation from two separate determinations with eight replicate each (n=16).

O=C(Nc1cc(Cl)cc(Cl)c1)Nc1cc(Cl)cc(Cl)c1 [COH-SR4, 1,3-bis(3,5-dichlorophenyl) urea]
IC50 (H1618 cells): 1.5 ± 0.2 µM
combination effect (CI) with 5-FU [1]: synergism
IC50 (H520 cells): 2.4 ± 0.3 µM
Akt, ratio COH-SR4 group/Control Group (B16 mouse melanoma tumor): 0.84
Bcl2, ratio COH-SR4 group/Control Group (B16 mouse melanoma tumor): 0.39
Bim, ratio COH-SR4 group/Control Group (B16 mouse melanoma tumor): 5.8
CDK4, ratio COH-SR4 group/Control Group (B16 mouse melanoma tumor): 0.29
Cyclin B1, ratio COH-SR4 group/Control Group (B16 mouse melanoma tumor): 0.32
Fibronectin, ratio COH-SR4 group/Control Group (B16 mouse melanoma tumor): 0.22
Vimentin, ratio COH-SR4 group/Control Group (B16 mouse melanoma tumor): 0.39
pAMPK, ratio COH-SR4 group/Control Group (B16 mouse melanoma tumor): 3.1
pAkt, ratio COH-SR4 group/Control Group (B16 mouse melanoma tumor): 0.32
Hematocrit ([2]; mean ± SE, n=6): 41.0 ± 0.7%
Hemoglobin ([2]; mean ± SE, n=6): 13.9 ± 0.4 g/dL
Platelets ([2]; mean ± SE, n=6): 1055 ± 124 ×10^3/uL
RBC ([2]; mean ± SE, n=6): 8.7 ± 0.2 ×10^6/uL
WBC ([2]; mean ± SE, n=6): 7.4 ± 0.9 ×10^3/uL
ALP ([2]; plasma/serum): 119.3 ± 2.4 units/L
ALT ([2]; plasma/serum): 73.3 ± 2.4 units/L
AST ([2]; plasma/serum): 48.0 ± 3.0 units/L
Albumin ([2]; plasma/serum): 2.4 ± 0.1 g/dL
Cholsterol ([2]; plasma/serum): 82.0 ± 0.1 mg/dL
Creatinine ([2]; plasma/serum): 0.2 ± 0.0 mg/dL
Glucose ([2]; plasma/serum): 304.2 ± 21.1 mg/dL
LDH ([2]; plasma/serum): 822.7 ± 56.0 units/L
Triglycerides ([2]; plasma/serum): 78.7 ± 2.4 mg/dL
cells accumulated in G2 phase (G2/M phase arrest) [3]: ~50%
IC50 (Hs600T; 48 h): ~10 µM
IC50 (Hs600T; 96 h): ~6 µM

Reference: patent US9808434B2, “Compound for treating cancer and diabetes” (CITY OF HOPE, priority 2011, dated 2017)
